Test [1] deals with mice melanoma cell (B16-F10). Nature of the test: In vitro darktoxicity and PDT killing effect (CCK-8), B16-F10. Type of test: cell-based. Conditions: for PDT anti-cancer activity (in words): light dose of 8 J/cm^2. The text has this: (§1) Human non-small cell lung cancer cellA549 and mice melanoma cell B16-F10 provided by Cell bank of Shanghai in Chinese Academy of Sciences were selected as cell strains.
(§2) 660 nm semiconductor laser therapeutic equipments manufactured by Baifei biomedical company of Shanghai was selected as a laser light source, with the largest output power of 2 W.
(§3) 1) Cell strains of tumors: culture of human non-small cell lung cancer cell (A549) and mice melanoma cell (B16-F10): frozen cells were taken out of liquid nitrogen, placed in a water bath at […]. […] The medium was renewed once every two days.
(§4) 2) Preparation of reagents: compounds of the present application to be tested and positive control drug Talaporfin were dissolved in a suitable amount of 0.1 M NaOH, adjusted pH to 7.4 by 0.1 M HCl. Normal saline was added to prepare drug stock solution in a suitable concentration.
(§5) 3) Detecting darktoxicity and PDT killing effects to the two tumor cells of compounds to be tested and positive control drug: 100 μL of 5×10^3/mL cell suspension was added into each well of 96-well plate, placed in a incubator at 37° C., 5% CO2 for 24 h. after removing cell medium, fresh mediums containing different concentration of samples were added, opened with three complex holes, and incubated for 24 h at 37° C. and 5% CO2 (volume concentration). After adding fresh medium, no light irradiated (darktoxicity) or 660 nm wavelength laser was used to irradiate (light dose was 8 J/cm^2) (phototoxicity). Cells were incubated for another 24 h. Cell medium containing drugs were removed and fresh medium was added. 200 μL medium containing 10% (v/v) CCK-8 (Dojindo Laboratories, Japan) was added into each well, and incubated for 1.5 h. Microplate reader (Tecan, Switzerland) was used to measure absorbance of each well at a wavelength of 450 nm.

Test [2] concerns human non-small cell lung cancer cell (A549). Nature of the test: In vitro darktoxicity and PDT killing effect (CCK-8), A549. Type of test: cell-based. The note with it: for PDT anti-cancer activity (in words): light dose of 8 J/cm^2.
Text: as §1, §2, §3, §4, §5

[3] abbreviates: 660 nm laser, light dose 8 J/cm^2, read-out: Phototoxicity (IC50).
The mark [4] stands for this setting: no light irradiated, 24 h drug incubation, read-out: Darktoxicity (IC50).

Like-named read-outs stand apart in the source and are kept apart here.

For `CCC1=C(C)c2cc3[nH]c(cc4nc(c(CC(=O)N[C@@H](CCC(=O)O)C(=O)O)c5[nH]c(cc1n2)c(C)c5C(=O)O)[C@@H](CCC(=O)O)[C@@H]4C)c(C)c3C(C)OCCOCCOC` (stereo partly drawn) [I17, N-[3-[1-(2-(2-methoxy)ethyoxyl)ethyoxyl]ethyl-3-devinylchlorine6-15^2-acyl]-L-glutamic acid], the “Ratio of Darktoxicity and Phototoxicity” value came out at 111.04 in test [1] and 240.63 in test [2]. Besides, the concentration for half-maximal inhibition (IC50) in test [1] (setting [3]) was 1.52 µM; in test [1] (setting [4]), 169 µM; in test [2] (setting [3]) it was 1.1 µM; in test [2] (setting [4]) it was 265 µM.

Regarding `CCCOC(C)c1c(C)c2cc3nc(c(CC(=O)N[C@@H](CCC(=O)O)C(=O)O)c4[nH]c(cc5nc(cc1[nH]2)C(C)=C5CC)c(C)c4C(=O)O)[C@@H](CCC(=O)O)[C@@H]3C` (stereo partly drawn) [I11, N-[3-(1-n-propoxyl)ethyl-3-devinylchlorine6-15^2-acyl]-L-glutamic acid], the IC50 in test [1] (setting [4]) worked out at 173 µM; in test [2] (setting [3]), 1.12 µM; in test [2] (setting [4]) it was 278 µM.

On to `CCCOC(C)c1c(C)c2cc3nc(c(CC(=O)N[C@@H](CC(=O)O)C(=O)O)c4[nH]c(cc5nc(cc1[nH]2)C(C)=C5CC)c(C)c4C(=O)O)[C@@H](CCC(=O)O)[C@@H]3C` (stereo partly drawn) [I2, N-[3-(1-n-propoxyl)ethyl-3-devinylchlorine6-15^2-acyl]-L-aspartic acid], for which the “Ratio of Darktoxicity and Phototoxicity” value is reported as 125.73 in test [1] and more than 288.46 in test [2]. The IC50 in test [1] (setting [3]) was 1.48 µM; in test [1] (setting [4]), 186 µM; in test [2] (setting [3]), 1.04 µM; in test [2] (setting [4]), more than 300 µM.

Consider `CCC1=C(C)c2cc3[nH]c(cc4nc(c(CC(=O)N[C@@H](CC(=O)O)C(=O)O)c5[nH]c(cc1n2)c(C)c5C(=O)O)[C@@H](CCC(=O)O)[C@@H]4C)c(C)c3C(C)OCCOCCOC` (stereo partly drawn) [I8, N-[3-[1-(2-(2-methoxy)ethyoxyl)ethyoxyl]ethyl-3-devinylchlorine6-15^2-acyl]-L-aspartic acid], for which the figures for the “Ratio of Darktoxicity and Phototoxicity” value in test [1] and in test [2] were 122.07 and 283.98, respectively. Further, the IC50 in test [1] (setting [3]) amounted to 1.43 µM; in test [1] (setting [4]) it was 175 µM; in test [2] (setting [3]), 1.01 µM; in test [2] (setting [4]) it was 287 µM.

Consider `CCCOC(C)c1c(C)c2cc3nc(c(CC(=O)N[C@@H](CCCCN)C(=O)O)c4[nH]c(cc5nc(cc1[nH]2)C(C)=C5CC)c(C)c4C(=O)O)[C@@H](CCC(=O)O)[C@@H]3C` (stereo partly drawn) [I20, N-[3-(1-n-propoxyl)ethyl-3-devinylchlorine6-15^2-acyl]-L-lysine], for which the “Ratio of Darktoxicity and Phototoxicity” value in test [1] is given as 92.87; in test [2] it was more than 225.56. Moreover, the IC50 is 1.75 µM in test [1] (setting [3]), 163 µM in test [1] (setting [4]), 1.33 µM in test [2] (setting [3]) and more than 300 µM in test [2] (setting [4]).

For `CCCCCCOC(C)c1c(C)c2cc3nc(c(CC(=O)N[C@@H](CCCCN)C(=O)O)c4[nH]c(cc5nc(cc1[nH]2)C(C)=C5CC)c(C)c4C(=O)O)C(CCC(=O)O)C3C` (stereo partly drawn) [I21, N-[3-(1-n-hexyloxy)ethyl-3-devinylchlorine6-15^2-acyl]-L-lysine], the figures for the “Ratio of Darktoxicity and Phototoxicity” value in test [1] and in test [2] were 171.31 and 370.30, respectively. Besides, the IC50 in test [1] (setting [3]) was 1.05 µM; in test [1] (setting [4]), 180 µM; in test [2] (setting [3]), 0.79 µM; in test [2] (setting [4]), 293 µM. Further, the “PDT anti-cancer activity (in words)” value in test [1] and in test [2] was “best” each time.

With `CCC1=C(C)c2cc3[nH]c(cc4nc(c(CC(=O)N[C@@H](CC(=O)O)C(=O)O)c5[nH]c(cc1n2)c(C)c5C(=O)O)C(CCC(=O)O)C4C)c(C)c3C(C)OCCCCOC` (stereo partly drawn) [I7, N-[3-[1-(4-methoxy)butoxy]ethyl-3-devinylchlorine6-15^2-acyl]-L-aspartic acid], the “Ratio of Darktoxicity and Phototoxicity” value in test [1] stood at 159.38; in test [2], 317.88. The IC50 turned out to be 1.04 µM in test [1] (setting [3]), 166 µM in test [1] (setting [4]), 0.86 µM in test [2] (setting [3]) and 273 µM in test [2] (setting [4]).

`CCC1=C(C)c2cc3[nH]c(cc4nc(c(CC(=O)N[C@@H](CCCCN)C(=O)O)c5[nH]c(cc1n2)c(C)c5C(=O)O)C(CCC(=O)O)C4C)c(C)c3C(C)OC` (stereo partly drawn) [I19, N^α-[3-(1-methoxy)ethyl-3-devinylchlorine6-15^2-acyl]-L-lysine]: the “Ratio of Darktoxicity and Phototoxicity” value is recorded as 84.41 in test [1] and more than 156.25 in test [2]. For the same compound, the IC50 in test [1] (setting [3]) is 2.28 µM; in test [1] (setting [4]), 192 µM; in test [2] (setting [3]), 1.92 µM; in test [2] (setting [4]), more than 300 µM.

Consider `CCCCCCOC(C)c1c(C)c2cc3nc(c(CC(=O)N[C@@H](CCC(=O)O)C(=O)O)c4[nH]c(cc5nc(cc1[nH]2)C(C)=C5CC)c(C)c4C(=O)O)C(CCC(=O)O)C3C` (stereo partly drawn) [I12, N-[3-(1-n-hexyloxy)ethyl-3-devinylchlorine6-15^2-acyl]-L-glutamic acid], for which the “PDT anti-cancer activity (in words)” value in test [1] and in test [2] was “best” each time.

Regarding `CCC1=C(C)c2cc3[nH]c(cc4nc(c(CC(=O)N[C@@H](CCCCN)C(=O)O)c5[nH]c(cc1n2)c(C)c5C(=O)O)C(CCC(=O)O)C4C)c(C)c3C(C)OCCCCOC` (stereo partly drawn) [I25, N-[3-[1-(4-methoxy)butoxy]ethyl-3-devinylchlorine6-15^2-acyl]-L-lysine], the “Ratio of Darktoxicity and Phototoxicity” value is on record as 140.15 in test [1] and 222.06 in test [2]. Also, the IC50 was determined as 1.16 µM in test [1] (setting [3]), 163 µM in test [1] (setting [4]), 1.08 µM in test [2] (setting [3]) and 240 µM in test [2] (setting [4]).

On to `CCC1=C(C)c2cc3[nH]c(cc4nc(c(CC(=O)N[C@@H](CCCCN)C(=O)O)c5[nH]c(cc1n2)c(C)c5C(=O)O)[C@@H](CCC(=O)O)[C@@H]4C)c(C)c3C(C)OCCOC` (stereo partly drawn) [I22, N-[3-[1-(2-methoxy)ethyoxyl]ethyl-3-devinylchlorine6-15^2-acyl]-L-lysine], for which the results for the “Ratio of Darktoxicity and Phototoxicity” value in test [1] and in test [2] were 89.24 and 175.76, respectively. The IC50 came to 1.91 µM in test [1] (setting [3]), 170 µM in test [1] (setting [4]), 1.47 µM in test [2] (setting [3]) and 258 µM in test [2] (setting [4]).

Regarding `CCC1=C(C)c2cc3[nH]c(cc4nc(c(CC(=O)N[C@@H](CC(=O)O)C(=O)O)c5[nH]c(cc1n2)c(C)c5C(=O)O)C(CCC(=O)O)C4C)c(C)c3C(C)OC` (stereo partly drawn) [I1, N-[3-(1-methoxy)ethyl-3-devinylchlorine6-15^2-acyl]-L-aspartic acid], the entries for the “Ratio of Darktoxicity and Phototoxicity” value in test [1] and in test [2] were 102.34 and more than 227.27, respectively. Also, the IC50 in test [1] (setting [3]) is 2.06 µM; in test [1] (setting [4]), 211 µM; in test [2] (setting [3]), 1.32 µM; in test [2] (setting [4]) it was more than 300 µM.

Consider `CCC1=C(C)c2cc3[nH]c(cc4nc(c(CC(=O)N[C@@H](CC(=O)OC(C)(C)C)C(=O)OC(C)(C)C)c5[nH]c(cc1n2)c(C)c5C(=O)O)[C@@H](CCC(=O)O)[C@@H]4C)c(C)c3C(C)OCCOC` (stereo partly drawn) [I4, N-[3-[1-(2-methoxy)ethyoxyl]ethyl-3-devinylchlorine6-15^2-acyl]-L-aspartic acid di-tert-butyl ester], for which the results for the “Ratio of Darktoxicity and Phototoxicity” value in test [1] and in test [2] were 113.91 and 255.18, respectively. Further, the IC50 in test [1] (setting [3]) is 1.61 µM; in test [1] (setting [4]), 183 µM; in test [2] (setting [3]), 1.17 µM; in test [2] (setting [4]), 299 µM.

For `CCC1=C(C)c2cc3[nH]c(cc4nc(c(CC(=O)N[C@@H](CCCCN)C(=O)O)c5[nH]c(cc1n2)c(C)c5C(=O)O)[C@@H](CCC(=O)O)[C@@H]4C)c(C)c3C(C)OCCOCCOC` (stereo partly drawn) [I26, N-[3-[1-(2-(2-methoxy)ethyoxyl)ethyoxyl]ethyl-3-devinylchlorine6-15^2-acyl]-L-lysine], the “Ratio of Darktoxicity and Phototoxicity” value in test [1] came out at 105.20; in test [2], 201.61. Further, the IC50 in test [1] (setting [3]) was found to be 1.67 µM; in test [1] (setting [4]), 176 µM; in test [2] (setting [3]), 1.23 µM; in test [2] (setting [4]), 248 µM.

For the compound `C=Cc1c(C)c2cc3nc(c(CC(=O)N[C@@H](CC(=O)O)C(=O)O)c4[nH]c(cc5nc(cc1[nH]2)C(C)=C5CC)c(C)c4C(=O)O)[C@@H](CCC(=O)O)[C@@H]3C` [Talaporfin, reference compound], the “Ratio of Darktoxicity and Phototoxicity” value came to 15.81 in test [1] and 31.21 in test [2]. The IC50 was found to be 10.7 µM in test [1] (Mus musculus, light or radiation study, 660 nm laser, light dose 8 J/cm^2, read-out: Phototoxicity (IC50)); 170 µM in test [1] (Mus musculus, light or radiation study, no light irradiated, 24 h drug incubation, read-out: Darktoxicity (IC50)); 8.86 µM in test [2] (Homo sapiens, light or radiation study, 660 nm laser, light dose 8 J/cm^2, read-out: Phototoxicity (IC50)); 277 µM in test [2] (Homo sapiens, light or radiation study, no light irradiated, 24 h drug incubation, read-out: Darktoxicity (IC50)).

As usually defined, the IC50 is the concentration that gives 50% inhibition.

The record behind these values is patent US9951081B1, “Chlorin e6 derivative and pharmaceutically acceptable salt thereof and process for preparing and use of the same” (priority 2016, dated 2018).
